Positions of bridges follow the written chain, without caps; N, C: chain ends. Non-standard residues stand in square brackets, D forms with d. Residues, ends and D or L forms follow the SMILES beside them. *: point of attachment. hPhe(3-Cl-4-CF3) = N[C@@H](CCc1ccc(C(F)(F)F)c(Cl)c1)C(=O)O; hPhe(3-F,4-CF3) = N[C@@H](CCc1ccc(C(F)(F)F)c(F)c1)C(=O)O; NMePhe(4-CF3) = CN[C@@H](Cc1ccc(C(F)(F)F)cc1)C(=O)O; 3Oxa8azabicyclo(3.2.1)octane = C1CC2COCC1N2*; NEtPhe(4-Me) = CCN[C@@H](Cc1ccc(C)cc1)C(=O)O; NMePhe(4-Me) = CN[C@@H](Cc1ccc(C)cc1)C(=O)O; NMeAla(cPent) = CN[C@@H](CC1CCCC1)C(=O)O; NMeGly(cPent) = CN[C@H](C(=O)O)C1CCCC1; Gly(cPent) = N[C@H](C(=O)O)C1CCCC1; NMeCha = CN[C@@H](CC1CCCCC1)C(=O)O; NMehLeu = CN[C@@H](CCC(C)C)C(=O)O; NEtLeu = CCN[C@@H](CC(C)C)C(=O)O; NMeI = CC[C@H](C)[C@H](NC)C(=O)O; Piperidide(4-Me) = CC1CCN(*)CC1; NMeD = CN[C@@H](CC(=O)O)C(=O)O; NMeL = CN[C@@H](CC(C)C)C(=O)O; NMeV = CN[C@H](C(=O)O)C(C)C; d(β3hA) = C[C@@H](N)CC(=O)O; Azetidin(1-yl) = C1CN(*)C1; NMeS = CN[C@@H](CO)C(=O)O; Morpholide = C1CN(*)CCO1; NMeA = CN[C@@H](C)C(=O)O; Piperidide = C1CCN(*)CC1; Ac5c = NC1(C(=O)O)CCCC1; Aze = O=C(O)[C@@H]1CCN1; NEtG = CCNCC(=O)O; Sar = CNCC(=O)O; Propyl = CCC*
test system: Human pancreatic cancer cell line AsPC-1; test: Measurement of AsPC-1 cell growth inhibition (AsPC-1 CGI); format: cell-based; details: 96 h
Outline: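 AsPC-1 cells in 15% FBS RPMI-1640 were exposed to test compound for 96 hours at 37° C, with CellTiter-Glo as endpoint.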

SMILES	IC50
CC[C@H](C)[C@@H]1NC(=O)[C@H](CC(C)C)N(CC)C(=O)C[C@@H](C(=O)N2CCC2)N(C)C(=O)[C@H](C2CCCC2)N(C)C(=O)C2(CCCC2)NC(=O)[C@@H]2CCCN2C(=O)[C@H](CCc2ccc(C(F)(F)F)c(Cl)c2)NC(=O)CN(C)C(=O)[C@H](CC2CCCCC2)N(C)C(=O)[C@@H]2CCN2C(=O)[C@H](C)N(C)C1=O [Compound 1198] ([NEtLeu]I[NMeA][Aze][NMeCha][Sar][hPhe(3-Cl-4-CF3)]P[Ac5c][NMeGly(cPent)][NMeD]-{Azetidin(1-yl)}; lactam N-11)	20 to 50 nM
CC[C@H](C)[C@@H]1NC(=O)[C@H](CC(C)C)N(C)C(=O)C[C@@H](C)NC(=O)[C@H](C2CCCC2)NC(=O)C2(CCCC2)NC(=O)[C@@H]2CCCN2C(=O)[C@H](CCc2ccc(C(F)(F)F)c(Cl)c2)NC(=O)CN(C)C(=O)[C@H](Cc2ccc(C)cc2)N(C)C(=O)[C@@H]2CCN2C(=O)[C@H](C)N(C)C1=O [Compound 1213] (cyclo([Ac5c][Gly(cPent)][d(β3hA)][NMeL]I[NMeA][Aze][NMePhe(4-Me)][Sar][hPhe(3-Cl-4-CF3)]P))	100 to 500 nM
CC[C@H](C)[C@@H]1NC(=O)[C@H](CCC(C)C)N(C)C(=O)C[C@@H](C(=O)N2CCOCC2)N(C)C(=O)[C@H](C2CCCC2)N(C)C(=O)C2(CCCC2)NC(=O)[C@@H]2CCCN2C(=O)[C@H](CCc2ccc(C(F)(F)F)c(Cl)c2)NC(=O)CN(C)C(=O)[C@H](C2CCCC2)N(C)C(=O)[C@@H]2CCN2C(=O)[C@H](C)NC1=O [Compound 1223] ([NMehLeu]IA[Aze][NMeGly(cPent)][Sar][hPhe(3-Cl-4-CF3)]P[Ac5c][NMeGly(cPent)][NMeD]-Morpholide; lactam N-11)	20 to 50 nM
CC[C@H](C)[C@@H]1NC(=O)[C@H](CC(C)C)N(CC)C(=O)C[C@@H](C(=O)N2CCOCC2)N(C)C(=O)[C@H]([C@@H](C)CC)N(C)C(=O)C2(CCCC2)NC(=O)[C@@H]2CCCN2C(=O)[C@H](CCc2ccc(C(F)(F)F)c(Cl)c2)NC(=O)CN(C)C(=O)[C@H](Cc2ccc(C(F)(F)F)cc2)N(C)C(=O)[C@@H]2CCN2C(=O)[C@H](C)NC1=O [Compound 1233] ([NEtLeu]IA[Aze][NMePhe(4-CF3)][Sar][hPhe(3-Cl-4-CF3)]P[Ac5c][NMeI][NMeD]-Morpholide; lactam N-11)	50 to 100 nM
CC[C@H](C)[C@@H]1NC(=O)[C@H](CC(C)C)N(C)C(=O)C[C@@H](C(=O)N2C3CCC2COC3)N(C)C(=O)[C@H](C2CCCC2)N(C)C(=O)C2(CCCC2)NC(=O)[C@@H]2CCCN2C(=O)[C@H](CCc2ccc(C(F)(F)F)c(Cl)c2)NC(=O)CN(C)C(=O)[C@H](Cc2ccc(C)cc2)N(CC)C(=O)[C@@H]2CCN2C(=O)[C@H](C)N(C)C1=O [Compound 1236] ([NMeL]I[NMeA][Aze][NEtPhe(4-Me)][Sar][hPhe(3-Cl-4-CF3)]P[Ac5c][NMeGly(cPent)][NMeD]-{3Oxa8azabicyclo(3.2.1)octane}; lactam N-11)	20 to 50 nM
CCCOC[C@H]1C(=O)N(C)CC(=O)N[C@@H](CCc2ccc(C(F)(F)F)c(Cl)c2)C(=O)N2CCC[C@H]2C(=O)NC2(CCCC2)C(=O)N(C)[C@@H](C2CCCC2)C(=O)N(C)[C@H](C(=O)N2C3CCC2COC3)CC(=O)N(C)[C@@H](CC2CCCC2)C(=O)N[C@@H]([C@@H](C)CC)C(=O)N(C)[C@@H](C)C(=O)N2CC[C@H]2C(=O)N1C [Compound 1251] ([NMeAla(cPent)]I[NMeA][Aze][NMeS](Propyl)[Sar][hPhe(3-Cl-4-CF3)]P[Ac5c][NMeGly(cPent)][NMeD]-{3Oxa8azabicyclo(3.2.1)octane}; lactam N-11)	20 to 50 nM
CC[C@H](C)[C@@H]1NC(=O)[C@H](CC(C)C)N(CC)C(=O)C[C@@H](C(=O)N2CCC2)N(C)C(=O)[C@H](C2CCCC2)N(C)C(=O)C2(CCCC2)NC(=O)[C@@H]2CCCN2C(=O)[C@H](CCc2ccc(C(F)(F)F)c(Cl)c2)NC(=O)CN(C)C(=O)[C@H](CC2CCCCC2)N(C)C(=O)[C@@H]2CCN2C(=O)[C@H](C)NC1=O [Compound 1262] ([NEtLeu]IA[Aze][NMeCha][Sar][hPhe(3-Cl-4-CF3)]P[Ac5c][NMeGly(cPent)][NMeD]-{Azetidin(1-yl)}; lactam N-11)	100 to 500 nM
CC[C@H](C)[C@@H]1NC(=O)[C@H](CC(C)C)N(CC)C(=O)C[C@@H](C(=O)N2CCOCC2)N(C)C(=O)[C@H](C2CCCC2)N(C)C(=O)C2(CCCC2)NC(=O)[C@@H]2CCCN2C(=O)[C@H](CCc2ccc(C(F)(F)F)c(Cl)c2)NC(=O)CN(C)C(=O)[C@H](CC2CCCCC2)N(C)C(=O)[C@@H]2CCN2C(=O)[C@H](C)NC1=O [Compound 1266] ([NEtLeu]IA[Aze][NMeCha][Sar][hPhe(3-Cl-4-CF3)]P[Ac5c][NMeGly(cPent)][NMeD]-Morpholide; lactam N-11)	100 to 500 nM
CC[C@H](C)[C@@H]1NC(=O)[C@H](CC(C)C)N(CC)C(=O)C[C@@H](C(=O)N(C)C)N(C)C(=O)[C@H]([C@@H](C)CC)N(C)C(=O)C2(CCCC2)NC(=O)[C@@H]2CCCN2C(=O)[C@H](CCc2ccc(C(F)(F)F)c(Cl)c2)NC(=O)CN(C)C(=O)[C@H](Cc2ccc(C)cc2)N(C)C(=O)[C@@H]2CCN2C(=O)[C@H](C)NC1=O [Compound 1287] ([NEtLeu]IA[Aze][NMePhe(4-Me)][Sar][hPhe(3-Cl-4-CF3)]P[Ac5c][NMeI][NMeD]-NMe2; lactam N-11)	20 to 50 nM
CC[C@H](C)[C@@H]1NC(=O)[C@H](CC(C)C)N(C)C(=O)C[C@@H](C(=O)N2CCC(C)CC2)N(C)C(=O)[C@H](C(C)C)N(C)C(=O)C2(CCCC2)NC(=O)[C@@H]2CCCN2C(=O)[C@H](CCc2ccc(C(F)(F)F)c(Cl)c2)NC(=O)CN(C)C(=O)[C@H](CC2CCCCC2)N(C)C(=O)[C@@H]2CCN2C(=O)[C@H](C)N(C)C1=O [Compound 1291] ([NMeL]I[NMeA][Aze][NMeCha][Sar][hPhe(3-Cl-4-CF3)]P[Ac5c][NMeV][NMeD]-{Piperidide(4-Me)}; lactam N-11)	100 to 500 nM
CC[C@H](C)[C@@H]1NC(=O)[C@H](CCC(C)C)N(C)C(=O)C[C@@H](C(=O)N(C)C)N(C)C(=O)[C@H](C2CCCC2)N(C)C(=O)C2(CCCC2)NC(=O)[C@@H]2CCCN2C(=O)[C@H](CCc2ccc(C(F)(F)F)c(F)c2)NC(=O)CN(C)C(=O)[C@H](CC2CCCCC2)N(C)C(=O)[C@@H]2CCN2C(=O)[C@H](C)NC1=O [Compound 1292] ([NMehLeu]IA[Aze][NMeCha][Sar][hPhe(3-F,4-CF3)]P[Ac5c][NMeGly(cPent)][NMeD]-NMe2; lactam N-11)	20 to 50 nM
CCCOC[C@H]1C(=O)N(C)CC(=O)N[C@@H](CCc2ccc(C(F)(F)F)c(Cl)c2)C(=O)N2CCC[C@H]2C(=O)NC2(CCCC2)C(=O)N(C)[C@@H](C2CCCC2)C(=O)N(C)[C@H](C(=O)N2C3CCC2COC3)CC(=O)N(C)[C@@H](CC(C)C)C(=O)N[C@@H]([C@@H](C)CC)C(=O)N[C@@H](C)C(=O)N2CC[C@H]2C(=O)N1C [Compound 1299] ([NMeL]IA[Aze][NMeS](Propyl)[Sar][hPhe(3-Cl-4-CF3)]P[Ac5c][NMeGly(cPent)][NMeD]-{3Oxa8azabicyclo(3.2.1)octane}; lactam N-11)	20 to 50 nM
CC[C@H](C)[C@@H]1NC(=O)[C@H](CC(C)C)N(C)C(=O)C[C@@H](C(=O)N2CCOCC2)N(C)C(=O)[C@H](C2CCCC2)N(C)C(=O)C2(CCCC2)NC(=O)[C@@H]2CCCN2C(=O)[C@H](CCc2ccc(C(F)(F)F)c(Cl)c2)NC(=O)CN(C)C(=O)[C@H](C2CCCC2)N(C)C(=O)[C@@H]2CCN2C(=O)[C@H](C)NC1=O [Compound 1309] ([NMeL]IA[Aze][NMeGly(cPent)][Sar][hPhe(3-Cl-4-CF3)]P[Ac5c][NMeGly(cPent)][NMeD]-Morpholide; lactam N-11)	50 to 100 nM
CCCOC[C@H]1C(=O)N(C)CC(=O)N[C@@H](CCc2ccc(C(F)(F)F)c(Cl)c2)C(=O)N2CCC[C@H]2C(=O)NC2(CCCC2)C(=O)N(C)[C@@H](C2CCCC2)C(=O)N(C)[C@H](C(=O)N2C3CCC2COC3)CC(=O)N(C)[C@@H](CCC(C)C)C(=O)N[C@@H]([C@@H](C)CC)C(=O)N[C@@H](C)C(=O)N2CC[C@H]2C(=O)N1C [Compound 1326] ([NMehLeu]IA[Aze][NMeS](Propyl)[Sar][hPhe(3-Cl-4-CF3)]P[Ac5c][NMeGly(cPent)][NMeD]-{3Oxa8azabicyclo(3.2.1)octane}; lactam N-11)	20 to 50 nM
CC[C@H](C)[C@@H]1NC(=O)[C@H](CC(C)C)N(C)C(=O)C[C@@H](C)NC(=O)[C@H](C2CCCC2)N(C)C(=O)C2(CCCC2)NC(=O)[C@@H]2CCCN2C(=O)[C@H](CCc2ccc(C(F)(F)F)c(Cl)c2)NC(=O)CN(C)C(=O)[C@H](Cc2ccc(C)cc2)N(C)C(=O)[C@@H]2CCN2C(=O)[C@H](C)NC1=O [Compound 1331] (cyclo(A[Aze][NMePhe(4-Me)][Sar][hPhe(3-Cl-4-CF3)]P[Ac5c][NMeGly(cPent)][d(β3hA)][NMeL]I))	50 to 100 nM
CC[C@H](C)[C@@H]1NC(=O)[C@H](CC(C)C)N(C)C(=O)C[C@@H](C(=O)N2CCCCC2)N(C)C(=O)[C@H](C(C)C)N(C)C(=O)C2(CCCC2)NC(=O)[C@@H]2CCCN2C(=O)[C@H](CCc2ccc(C(F)(F)F)c(Cl)c2)NC(=O)CN(C)C(=O)[C@H](CC2CCCCC2)N(C)C(=O)[C@@H]2CCN2C(=O)[C@H](C)NC1=O [Compound 1334] ([NMeL]IA[Aze][NMeCha][Sar][hPhe(3-Cl-4-CF3)]P[Ac5c][NMeV][NMeD]-Piperidide; lactam N-11)	100 to 500 nM
CCCOC[C@H]1C(=O)N(CC)CC(=O)N[C@@H](CCc2ccc(C(F)(F)F)c(Cl)c2)C(=O)N2CCC[C@H]2C(=O)NC2(CCCC2)C(=O)N(C)[C@@H](C2CCCC2)C(=O)N(C)[C@H](C(=O)N2C3CCC2COC3)CC(=O)N(C)[C@@H](CC(C)C)C(=O)N[C@@H]([C@@H](C)CC)C(=O)N(C)[C@@H](C)C(=O)N2CC[C@H]2C(=O)N1C [Compound 1338] ([NMeL]I[NMeA][Aze][NMeS](Propyl)[NEtG][hPhe(3-Cl-4-CF3)]P[Ac5c][NMeGly(cPent)][NMeD]-{3Oxa8azabicyclo(3.2.1)octane}; lactam N-11)	50 to 100 nM
CC[C@H](C)[C@@H]1NC(=O)[C@H](CC2CCCC2)N(C)C(=O)C[C@@H](C(=O)N(C)C)N(C)C(=O)[C@H](C2CCCC2)N(C)C(=O)C2(CCCC2)NC(=O)[C@@H]2CCCN2C(=O)[C@H](CCc2ccc(C(F)(F)F)c(F)c2)NC(=O)CN(C)C(=O)[C@H](CC2CCCCC2)N(C)C(=O)[C@@H]2CCN2C(=O)[C@H](C)NC1=O [Compound 1340] ([NMeAla(cPent)]IA[Aze][NMeCha][Sar][hPhe(3-F,4-CF3)]P[Ac5c][NMeGly(cPent)][NMeD]-NMe2; lactam N-11)	20 to 50 nM

Source: patent publication US12371454B2, “Cyclic peptide compound having Kras inhibitory action” (priority 2019, dated 2025)
